Measured values: EPA's ToxRefDB 2

Legend:
[1] = tested on: dog; conditions: Chronic toxicity; beagle; Oral; Capsule; dose end: 1 year; group: systemic; systemic / in life observation / body weight / body weight + systemic / in life observation / clinical signs / vomitting + systemic / in …
[2] = tested on: dog; conditions: Chronic toxicity, beagle, Oral, Gavage/Intubation, dose end: 274 day, group: systemic
[3] = systemic / in life observation / clinical signs / defecation (diarrhea) + systemic / in life observation / clinical signs / soft stools
[4] = systemic / in life observation / clinical signs / defecation (diarrhea) + systemic / in life observation / clinical signs / soft stools + …

| SMILES | LEL [1] [mg/kg/day] | LOAEL [1] [mg/kg/day] | NEL [1] [mg/kg/day] | NOAEL [1] [mg/kg/day] | LEL [2, 3] [mg/kg/day] | NEL [2, 3] [mg/kg/day] | LOAEL [2, 4] [mg/kg/day] | NOAEL [2, 4] [mg/kg/day] |
| --- | --- | --- | --- | --- | --- | --- | --- | --- |
| CCc1c(C(=O)NN2CCCCC2)nn(-c2ccc(Cl)cc2Cl)c1-c1ccc(Br)cc1 [Surinabant] | 1 | 1 | < 1 | < 1 |  |  |  |  |
| CCc1nn(CCO)c(CC)c1Oc1cc(C#N)cc(C#N)c1 [Lersivirine] |  |  |  |  | 5 | < 5 | > 45 | ≥ 45 |
